{"source": "patent US20230233545A1", "about": "“TREATMENT OF ATRIAL DYSFUNCTION” (MyoKardia, Inc., priority 2020, published 2023)", "key": {"[1]": {"target": "left atrial (LA) myofibrils (Sus scrofa, UniProt K7GMH0)", "sequence (F1SSF9 2-175)": "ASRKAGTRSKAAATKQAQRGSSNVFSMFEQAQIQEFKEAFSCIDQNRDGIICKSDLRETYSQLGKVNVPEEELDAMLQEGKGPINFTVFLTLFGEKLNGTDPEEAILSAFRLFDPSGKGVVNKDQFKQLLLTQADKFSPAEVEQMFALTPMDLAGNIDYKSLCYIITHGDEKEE", "sequence (K7GMH0 entry or part of it)": "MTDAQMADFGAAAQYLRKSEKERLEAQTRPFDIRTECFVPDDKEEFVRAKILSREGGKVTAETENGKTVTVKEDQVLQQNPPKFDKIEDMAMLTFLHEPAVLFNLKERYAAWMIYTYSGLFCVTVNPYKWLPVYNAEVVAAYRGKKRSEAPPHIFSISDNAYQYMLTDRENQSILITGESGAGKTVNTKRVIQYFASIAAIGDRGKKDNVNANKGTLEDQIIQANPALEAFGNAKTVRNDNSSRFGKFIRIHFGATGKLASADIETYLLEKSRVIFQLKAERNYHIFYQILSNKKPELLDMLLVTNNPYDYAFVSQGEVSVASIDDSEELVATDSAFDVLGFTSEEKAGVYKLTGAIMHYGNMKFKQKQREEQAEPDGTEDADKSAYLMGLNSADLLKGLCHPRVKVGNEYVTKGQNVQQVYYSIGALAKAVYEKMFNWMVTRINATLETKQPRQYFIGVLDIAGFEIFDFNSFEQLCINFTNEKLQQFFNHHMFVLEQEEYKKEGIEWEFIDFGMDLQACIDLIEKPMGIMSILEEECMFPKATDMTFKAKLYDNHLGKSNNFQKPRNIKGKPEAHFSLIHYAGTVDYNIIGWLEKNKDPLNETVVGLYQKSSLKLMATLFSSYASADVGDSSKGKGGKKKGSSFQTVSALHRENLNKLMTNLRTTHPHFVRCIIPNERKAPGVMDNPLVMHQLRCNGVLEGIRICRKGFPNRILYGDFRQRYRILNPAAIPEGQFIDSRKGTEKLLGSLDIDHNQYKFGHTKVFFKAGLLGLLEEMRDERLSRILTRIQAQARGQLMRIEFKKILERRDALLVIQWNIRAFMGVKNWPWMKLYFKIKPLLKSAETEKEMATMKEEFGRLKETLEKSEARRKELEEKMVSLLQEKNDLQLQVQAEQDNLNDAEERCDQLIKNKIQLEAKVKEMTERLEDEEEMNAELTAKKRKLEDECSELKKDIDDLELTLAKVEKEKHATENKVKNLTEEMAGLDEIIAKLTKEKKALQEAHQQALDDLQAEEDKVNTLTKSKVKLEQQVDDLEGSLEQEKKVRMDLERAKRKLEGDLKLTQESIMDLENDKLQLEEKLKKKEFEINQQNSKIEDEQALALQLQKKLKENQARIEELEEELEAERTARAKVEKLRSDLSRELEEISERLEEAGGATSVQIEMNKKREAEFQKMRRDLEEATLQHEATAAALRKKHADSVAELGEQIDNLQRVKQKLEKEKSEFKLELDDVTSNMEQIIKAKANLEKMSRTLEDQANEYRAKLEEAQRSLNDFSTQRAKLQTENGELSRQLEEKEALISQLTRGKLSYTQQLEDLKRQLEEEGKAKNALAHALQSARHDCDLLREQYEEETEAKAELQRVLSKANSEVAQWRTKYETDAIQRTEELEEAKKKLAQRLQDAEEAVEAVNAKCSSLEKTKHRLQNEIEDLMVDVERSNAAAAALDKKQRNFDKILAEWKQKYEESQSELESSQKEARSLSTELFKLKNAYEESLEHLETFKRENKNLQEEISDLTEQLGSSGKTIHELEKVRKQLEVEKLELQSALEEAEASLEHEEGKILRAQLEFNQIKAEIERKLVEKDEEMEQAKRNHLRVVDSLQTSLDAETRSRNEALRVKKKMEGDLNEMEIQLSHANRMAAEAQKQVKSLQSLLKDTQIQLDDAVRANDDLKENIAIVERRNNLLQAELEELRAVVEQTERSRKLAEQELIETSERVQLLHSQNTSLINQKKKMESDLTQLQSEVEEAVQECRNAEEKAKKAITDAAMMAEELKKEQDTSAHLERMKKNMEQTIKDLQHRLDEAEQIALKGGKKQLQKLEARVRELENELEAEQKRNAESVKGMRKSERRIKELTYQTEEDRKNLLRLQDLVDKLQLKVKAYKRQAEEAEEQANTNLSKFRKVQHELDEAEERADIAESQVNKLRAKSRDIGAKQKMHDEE", "sequence (F1RRT2 2-197, further chain)": "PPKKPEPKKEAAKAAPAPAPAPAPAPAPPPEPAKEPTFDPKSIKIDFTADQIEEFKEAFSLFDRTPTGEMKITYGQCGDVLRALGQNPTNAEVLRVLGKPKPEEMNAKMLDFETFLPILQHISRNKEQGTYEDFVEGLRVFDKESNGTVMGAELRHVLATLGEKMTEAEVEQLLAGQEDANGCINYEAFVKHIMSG", "experiment": "Steady-state ATPase (ATP turnover rate), LA myofibrils", "type": "biochemical, Yucatan mini-pig", "procedure": "The ability of Compound I to increase myocardial ATP turnover rates selectively was evaluated using both left atrial (LA) and left ventricular (LV) myofibrils prepared from Yucatan mini-pig hearts, as well as subfragment-1 (51) myosins from cardiac (recombinant human), skeletal (rabbit psoas) and smooth (chicken gizzard) muscles. Pig hearts were harvested, and the left atria/ventricles were freshly excised, dissected, frozen in liquid nitrogen and stored at −80° C. […] This enzyme system couples the formation of ADP to the oxidation of NADH leading to an absorbance change at 340 nm. […] All measurements were carried out at 25° C. using a plate reader (SpectraMax; Molecular Devices, LLC, CA, USA) to monitor the change in absorbance as a function of time; data were normalized to a per-second scale as described in Green et al., Science (2016) 351(6273):617-21. […]"}, "[2]": {"tested_on": "beagle dogs under isoflurane anesthesia, right-atrial burst pacing", "experiment": "AF inducibility and LA size/function with phenylephrine on board (Example 3)"}, "[3]": {"target": "T1, left ventricular (LV) myofibrils (Sus scrofa, UniProt P79293)", "T1 construct": "from tissue; host or cells: left ventricle of Yucatan mini-pig heart", "T1 sequence (P79293 whole entry, the tested form may be a part)": "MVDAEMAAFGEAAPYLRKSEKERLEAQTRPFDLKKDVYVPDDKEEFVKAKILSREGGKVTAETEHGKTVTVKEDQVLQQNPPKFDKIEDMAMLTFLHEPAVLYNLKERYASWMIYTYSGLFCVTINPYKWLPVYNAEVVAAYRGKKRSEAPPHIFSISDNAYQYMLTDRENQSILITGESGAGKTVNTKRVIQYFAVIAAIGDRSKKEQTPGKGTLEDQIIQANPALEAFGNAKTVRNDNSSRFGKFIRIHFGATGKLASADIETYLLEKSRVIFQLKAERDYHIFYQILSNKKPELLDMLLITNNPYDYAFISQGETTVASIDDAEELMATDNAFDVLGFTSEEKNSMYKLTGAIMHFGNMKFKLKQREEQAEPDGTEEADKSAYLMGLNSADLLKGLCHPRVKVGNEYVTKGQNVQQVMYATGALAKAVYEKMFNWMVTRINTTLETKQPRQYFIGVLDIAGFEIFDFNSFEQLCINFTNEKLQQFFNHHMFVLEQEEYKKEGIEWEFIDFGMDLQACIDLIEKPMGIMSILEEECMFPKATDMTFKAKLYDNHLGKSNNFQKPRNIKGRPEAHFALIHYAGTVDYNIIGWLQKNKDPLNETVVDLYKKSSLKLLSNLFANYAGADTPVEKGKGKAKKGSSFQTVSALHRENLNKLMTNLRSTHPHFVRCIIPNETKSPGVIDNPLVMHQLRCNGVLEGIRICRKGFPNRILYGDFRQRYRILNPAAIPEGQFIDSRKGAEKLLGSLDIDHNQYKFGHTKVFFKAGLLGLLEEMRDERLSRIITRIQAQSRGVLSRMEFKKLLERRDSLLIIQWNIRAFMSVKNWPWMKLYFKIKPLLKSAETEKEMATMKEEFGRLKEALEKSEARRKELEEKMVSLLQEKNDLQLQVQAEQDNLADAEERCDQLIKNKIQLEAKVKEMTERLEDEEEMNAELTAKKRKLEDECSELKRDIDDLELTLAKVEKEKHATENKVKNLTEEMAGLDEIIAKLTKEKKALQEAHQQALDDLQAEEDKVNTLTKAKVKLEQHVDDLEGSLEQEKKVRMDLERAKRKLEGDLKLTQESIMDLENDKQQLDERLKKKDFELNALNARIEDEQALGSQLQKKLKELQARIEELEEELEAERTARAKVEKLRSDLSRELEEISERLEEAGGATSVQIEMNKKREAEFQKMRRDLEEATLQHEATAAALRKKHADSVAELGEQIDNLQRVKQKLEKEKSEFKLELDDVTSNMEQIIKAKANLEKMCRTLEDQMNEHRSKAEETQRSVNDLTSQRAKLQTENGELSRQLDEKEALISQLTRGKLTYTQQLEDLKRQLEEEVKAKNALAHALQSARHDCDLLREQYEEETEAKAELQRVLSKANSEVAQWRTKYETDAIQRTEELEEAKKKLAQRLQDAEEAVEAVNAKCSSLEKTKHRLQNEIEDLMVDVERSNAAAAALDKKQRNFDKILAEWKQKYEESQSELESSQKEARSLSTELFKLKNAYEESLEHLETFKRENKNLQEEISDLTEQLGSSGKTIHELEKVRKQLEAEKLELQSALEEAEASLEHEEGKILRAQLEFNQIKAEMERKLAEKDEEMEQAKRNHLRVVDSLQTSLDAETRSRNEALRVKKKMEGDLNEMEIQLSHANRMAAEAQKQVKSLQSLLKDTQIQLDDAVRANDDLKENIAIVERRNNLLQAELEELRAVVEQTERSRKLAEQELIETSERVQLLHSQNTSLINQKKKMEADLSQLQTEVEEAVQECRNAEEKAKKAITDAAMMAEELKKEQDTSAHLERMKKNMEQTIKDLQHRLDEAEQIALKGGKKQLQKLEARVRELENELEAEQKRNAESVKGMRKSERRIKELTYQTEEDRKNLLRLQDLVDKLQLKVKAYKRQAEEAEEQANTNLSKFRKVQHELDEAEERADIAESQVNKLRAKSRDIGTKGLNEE", "experiment": "Steady-state ATPase (ATP turnover rate), LV myofibrils", "type": "biochemical, Yucatan mini-pig", "procedure": "The ability of Compound I to increase myocardial ATP turnover rates selectively was evaluated using both left atrial (LA) and left ventricular (LV) myofibrils prepared from Yucatan mini-pig hearts, as well as subfragment-1 (51) myosins from cardiac (recombinant human), skeletal (rabbit psoas) and smooth (chicken gizzard) muscles. Pig hearts were harvested, and the left atria/ventricles were freshly excised, dissected, frozen in liquid nitrogen and stored at −80° C. Myofibrils and S1 myosins were prepared as described in Kawas et al., J Biol Chem. (2017) 292(40:16571-7. Both atrial (n=4 hearts, 2 replicates each) and ventricular (n=3 hearts, 2 replicates each) myofibrils were assayed at a constant concentration of 1.0 mg/mL (at Ca^2+ sensitivity [pCa] 6.0). Rabbit skeletal (0.2 μM, n=8), chicken gizzard (0.5 n=10) and recombinant human cardiac (0.5 n=10) S1 myosin were assayed with a constant concentration of actin (14 μM).\nSteady-state ATPase measurements at varying concentrations of Compound I (0-50 μM, in 2% DMSO) were conducted using a coupled enzyme system utilizing pyruvate kinase and lactate dehydrogenase. This enzyme system couples the formation of ADP to the oxidation of NADH leading to an absorbance change at 340 nm. The buffering system used in all experiments was 12 mM PIPES, 2 mM MgCl2 and 1 mM dithiothreitol (DTT) at pH 6.8 (PM12 buffer). All measurements were carried out at 25° C. using a plate reader (SpectraMax; Molecular Devices, LLC, CA, USA) to monitor the change in absorbance as a function of time; data were normalized to a per-second scale as described in Green et al., Science (2016) 351(6273):617-21. Data are presented as means (standard deviation [SD]) in text or as mean±standard error of the mean (SEM) in figures; half maximal effective concentration (EC50) values (and 95% confidence intervals [CIs]) were calculated using a four-parameter-fit model (GraphPad Prism, GraphPad Software Inc., CA, USA)."}, "[4]": {"details": "0.3-0.4 mg/kg IV bolus with 0.3/0.4 mg/kg/hr IV infusion, P<0.05"}, "[5]": {"details": "IV bolus + infusion with PE vs PE alone, FIG. 4"}}, "data": [{"smiles": "Cn1cc(S(=O)(=O)[C@@](C)(F)C2CCN(C(=O)Nc3ccon3)CC2)c(C(F)F)n1", "note": "[Compound I, (R)-4-(1-((3-(difluoromethyl)-1-methyl-1H-pyrazol-4-yl)sulfonyl)-1-fluoroethyl)-N-(isoxazol-3-yl)piperidine-1-carboxamide]", "values": [{"measurement": "activation at 3 µM", "setting": "[1]; at 3 μM, read-out: increase in ATPase, LA porcine myofibrils", "result": 56, "unit": "%"}, {"measurement": "fold induction at 50 µM", "setting": "[1]; at 50 μM, SD ±0.3, read-out: increase in ATPase turnover rate, atrial myofibrils", "result": 2.3}, {"measurement": "fractional shortening (FS), increase", "setting": "[2]; [4]", "result": "13±3", "unit": "%"}, {"measurement": "left-ventricular stroke volume (SV), increase", "setting": "[2]; [4]", "result": "16±5", "unit": "%"}, {"measurement": "systolic ejection time (SET), change", "setting": "[2]; 0.3-0.4 mg/kg IV bolus with 0.3/0.4 mg/kg/hr IV infusion, prolonged, P<0.05", "result": "10±3", "unit": "%"}, {"measurement": "SBP under Compound I", "setting": "[2]; 0.3-0.4 mg/kg IV bolus with IV infusion, PE on board, systemic pressures preserved", "result": "135.7±6.2", "unit": "mmHg"}, {"measurement": "LV contractility (ΔEF)", "setting": "[2]; Compound I, Example 3 protocol, FIG. 6", "result": "increase LV contractility"}, {"measurement": "atrial emptying fraction (LA EF)", "setting": "[2]; [5]", "result": "increasing the atrial emptying fraction"}, {"measurement": "left-atrial size (LA Volmin)", "setting": "[2]; [5]", "result": "decreased left-atrial size"}, {"measurement": "AF inducibility (e.g., AF duration)", "setting": "[2]; IV bolus + infusion with PE vs PE alone, burst pacing, FIG. 4", "result": "decreasing AF inducibility"}, {"measurement": "increase in ATPase, LV porcine myofibrils", "setting": "[3]; at 3 μM", "result": 85, "unit": "%"}, {"measurement": "increase in ATPase turnover rate, ventricular myofibrils", "setting": "[3]; at 50 μM, SD ±0.3", "result": 3.0, "unit": "fold"}, {"measurement": "AC50", "setting": "[3]; pCa 6.0, 25° C., 95% CI 3.7-27.5, read-out: half maximal active concentration [AC50], ATPase turnover rate, ventricular myofibrils", "result": 6, "unit": "µM"}]}]}
